Source: publication PMC5218480 (PLoS ONE, 2017)

System: MV-4-11 cells
Assay: Gene expression microarray analysis (Affymetrix PrimeView) and GSEA
Type: cell-based, human
Design: RFU PODN (11730768_x_at) / Fold change /veh PODN (11730768_x_at) / RFU LINC00158 (11744669_a_at) / Fold change /veh LINC00158 (11744669_a_at) / RFU DUSP10 (11751237_a_at) / Fold change /veh DUSP10 (11751237_a_at) / RFU ID3 (11757404_x_at) / Fold change /veh ID3 (11757404_x_at) / RFU PLEKHG5 (11737974_s_at) / Fold change /veh PLEKHG5 (11737974_s_at) / RFU LRRC4B (11730491_at) / Fold change /veh LRRC4B (11730491_at) / RFU GIMAP4 (11747438_a_at) / Fold change /veh GIMAP4 (11747438_a_at) / RFU KRT8 (11758183_x_at) / Fold change /veh KRT8 (11758183_x_at) / RFU CNN1 (11734310_a_at) / Fold change /veh CNN1 (11734310_a_at) / RFU VPS37D (11726825_at) / Fold change /veh VPS37D (11726825_at) / RFU C10orf10 (11716522_x_at) / Fold change /veh C10orf10 (11716522_x_at) / RFU KIR2DL2 /// KIR2DL4 /// KIR2DL5A /// KIR2DL5B /// KIR2DS1 /// KIR2DS2 /// KIR2DS3 /// KIR2DS4 /// KIR3DL3 /// KIR3DL3 /// KIR3DS1 (11738374_at) / Fold change /veh KIR2DL2 /// KIR2DL4 /// KIR2DL5A /// KIR2DL5B /// KIR2DS1 /// KIR2DS2 /// KIR2DS3 /// KIR2DS4 /// KIR3DL3 /// KIR3DL3 /// KIR3DS1 (11738374_at) / RFU C1QL1 (11718748_at) / Fold change /veh C1QL1 (11718748_at) / RFU TMPRSS4 (11747572_a_at) / Fold change /veh TMPRSS4 (11747572_a_at) / RFU HAMP (11756126_x_at) / Fold change /veh HAMP (11756126_x_at) / RFU RNFT2 (11725882_a_at) / Fold change /veh RNFT2 (11725882_a_at) / RFU NR4A2 (11747474_a_at) / Fold change /veh NR4A2 (11747474_a_at) / RFU ABCC12 (11746883_a_at) / Fold change /veh ABCC12 (11746883_a_at) / RFU TMEM136 (11760407_x_at) / Fold change /veh TMEM136 (11760407_x_at) / RFU CLDN22 /// WWC2 (11732394_at) / Fold change /veh CLDN22 /// WWC2 (11732394_at) / RFU HLA-DPB1 (11760878_x_at) / Fold change /veh HLA-DPB1 (11760878_x_at) / RFU SPINT1 (11716480_a_at) / Fold change /veh SPINT1 (11716480_a_at) / RFU GAP43 (11754022_s_at) / Fold change /veh GAP43 (11754022_s_at) / RFU A4GNT (11735810_at) / Fold change /veh A4GNT (11735810_at) / RFU PRB3 (11715151_x_at) / Fold change /veh PRB3 (11715151_x_at) / RFU TUBB4B (11761932_at) / Fold change /veh TUBB4B (11761932_at) / RFU CAPN14 (11732068_a_at) / Fold change /veh CAPN14 (11732068_a_at) / RFU TMCC2 (11721928_a_at) / Fold change /veh TMCC2 (11721928_a_at) / RFU IRGQ (11745062_a_at) / Fold change /veh IRGQ (11745062_a_at) / RFU FAM174B (11720279_a_at) / Fold change /veh FAM174B (11720279_a_at) / RFU TMPRSS4 (11748680_a_at) / Fold change /veh TMPRSS4 (11748680_a_at) / RFU FAM212B (11763350_a_at) / Fold change /veh FAM212B (11763350_a_at) / RFU PLEKHG5 (11743358_a_at) / Fold change /veh PLEKHG5 (11743358_a_at) / RFU ZSCAN30 (11745921_a_at) / Fold change /veh ZSCAN30 (11745921_a_at) / RFU CMKLR1 (11741424_a_at) / Fold change /veh CMKLR1 (11741424_a_at) / RFU LOC101060620 /// MAPK8IP1 (11723275_at) / Fold change /veh LOC101060620 /// MAPK8IP1 (11723275_at) / RFU SPTSSB (11747773_x_at) / Fold change /veh SPTSSB (11747773_x_at) / RFU PRSS12 (11739890_at) / Fold change /veh PRSS12 (11739890_at) / RFU BIN1 (11741810_x_at) / Fold change /veh BIN1 (11741810_x_at) / RFU WNT11 (11732464_a_at) / Fold change /veh WNT11 (11732464_a_at) / RFU C10orf10 (11716521_a_at) / Fold change /veh C10orf10 (11716521_a_at) / RFU C5orf56 (11738089_at) / Fold change /veh C5orf56 (11738089_at) / RFU CYB561 (11721691_x_at) / Fold change /veh CYB561 (11721691_x_at) / RFU ANKRD19P (11752326_a_at) / Fold change /veh ANKRD19P (11752326_a_at) / RFU OR2T12 /// OR2T33 /// OR2T8 (11738714_s_at) / Fold change /veh OR2T12 /// OR2T33 /// OR2T8 (11738714_s_at) / RFU VCAN (11748164_a_at) / Fold change /veh VCAN (11748164_a_at) / RFU JSRP1 (11732532_at) / Fold change /veh JSRP1 (11732532_at) / RFU KRTAP10-11 (11738290_x_at) / Fold change /veh KRTAP10-11 (11738290_x_at) / RFU MYO3A (11730013_a_at) / Fold change /veh MYO3A (11730013_a_at) / RFU EBF3 (11725865_a_at) / Fold change /veh EBF3 (11725865_a_at) / RFU CAMK2N1 (11719241_x_at) / Fold change /veh CAMK2N1 (11719241_x_at) / RFU C5orf56 (11738088_a_at) / Fold change /veh C5orf56 (11738088_a_at) / RFU OLFML3 (11715873_a_at) / Fold change /veh OLFML3 (11715873_a_at) / RFU LOC100653217 /// NTM (11731650_a_at) / Fold change /veh LOC100653217 /// NTM (11731650_a_at) / RFU MAPK11 (11762145_a_at) / Fold change /veh MAPK11 (11762145_a_at) / RFU FIZ1 (11724087_x_at) / Fold change /veh FIZ1 (11724087_x_at) / RFU OASL (11726364_x_at) / Fold change /veh OASL (11726364_x_at) / RFU SOX15 (11748057_x_at) / Fold change /veh SOX15 (11748057_x_at) / RFU CD79A (11719716_a_at) / Fold change /veh CD79A (11719716_a_at) / RFU HIST1H1D (11736915_at) / Fold change /veh HIST1H1D (11736915_at) / RFU CASKIN2 (11723855_a_at) / Fold change /veh CASKIN2 (11723855_a_at) / RFU LOC730098 (11760151_x_at) / Fold change /veh LOC730098 (11760151_x_at) / RFU OR4N2 (11742367_at) / Fold change /veh OR4N2 (11742367_at) / RFU PRRT2 (11749266_a_at) / Fold change /veh PRRT2 (11749266_a_at) / RFU SNX32 (11753110_a_at) / Fold change /veh SNX32 (11753110_a_at) / RFU CDHR5 (11726645_a_at) / Fold change /veh CDHR5 (11726645_a_at) / RFU RCAN1 (11760418_a_at) / Fold change /veh RCAN1 (11760418_a_at) / RFU FAM167A (11723789_a_at) / Fold change /veh FAM167A (11723789_a_at) / RFU FAM26E (11764081_at) / Fold change /veh FAM26E (11764081_at) / RFU ISYNA1 (11749810_s_at) / Fold change /veh ISYNA1 (11749810_s_at) / RFU ACY1 (11761880_at) / Fold change /veh ACY1 (11761880_at) / RFU 11764098_at / Fold change /veh 11764098_at / RFU SAMD14 (11745864_x_at) / Fold change /veh SAMD14 (11745864_x_at) / RFU NPB (11741838_a_at) / Fold change /veh NPB (11741838_a_at) / RFU TMPRSS6 (11731388_a_at) / Fold change /veh TMPRSS6 (11731388_a_at) / RFU KRTAP10-2 (11738614_at) / Fold change /veh KRTAP10-2 (11738614_at) / RFU ARHGAP8 /// PRR5-ARHGAP8 (11727945_x_at) / Fold change /veh ARHGAP8 /// PRR5-ARHGAP8 (11727945_x_at) / RFU KRTAP5-7 /// NADSYN1 (11734609_at) / Fold change /veh KRTAP5-7 /// NADSYN1 (11734609_at) / RFU RASL12 (11751679_a_at) / Fold change /veh RASL12 (11751679_a_at) / RFU CDKN2B (11736163_a_at) / Fold change /veh CDKN2B (11736163_a_at) / RFU PRF1 (11729649_at) / Fold change /veh PRF1 (11729649_at) / RFU, ZNF638 /// ZNF638-IT1 / Fold change vs veh, ZNF638 /// ZNF638-IT1 / RFU, PANK3 / Fold change vs veh, PANK3 / RFU, SH3YL1 / Fold change vs veh, SH3YL1 / RFU, ZEB2 / Fold change vs veh, ZEB2 / RFU, NRIP1 / Fold change vs veh, NRIP1 / RFU, PTTG1IP / Fold change vs veh, PTTG1IP / RFU, CAPN2 / Fold change vs veh, CAPN2 / RFU, MED14 / Fold change vs veh, MED14 / RFU, SNORA58 / Fold change vs veh, SNORA58 / RFU, C1orf63 / Fold change vs veh, C1orf63 / RFU, LRRFIP1 / Fold change vs veh, LRRFIP1 / RFU, NDUFAF7 / Fold change vs veh, NDUFAF7 / RFU, SLC12A2 / Fold change vs veh, SLC12A2 / RFU, IBTK / Fold change vs veh, IBTK / RFU, ESF1 / Fold change vs veh, ESF1 / Fold change vs veh, TMEM50B / RFU, TAOK1 / Fold change vs veh, TAOK1 / RFU, ACBD3 / Fold change vs veh, ACBD3 / RFU, TMA16 / Fold change vs veh, TMA16 / RFU, RWDD3 / Fold change vs veh, RWDD3 / RFU, BCAT1 / Fold change vs veh, BCAT1 / RFU, EDEM3 / Fold change vs veh, EDEM3 / RFU, TMEM33 / Fold change vs veh, TMEM33 / RFU, WDR75 / Fold change vs veh, WDR75 / RFU, AHCTF1 / Fold change vs veh, AHCTF1 / RFU, TFRC / Fold change vs veh, TFRC / RFU, ZDHHC17 / Fold change vs veh, ZDHHC17 / RFU, NOM1 / Fold change vs veh, NOM1 / RFU, ARL8B / Fold change vs veh, ARL8B / RFU, ZBTB11 / Fold change vs veh, ZBTB11 / RFU, TAMM41 / Fold change vs veh, TAMM41 / RFU, KIAA1704 /// LOC100996395 / Fold change vs veh, KIAA1704 /// LOC100996395 / RFU, ING1 / Fold change vs veh, ING1 / RFU, TRMT61B / Fold change vs veh, TRMT61B / RFU, FUBP3 / Fold change vs veh, FUBP3 / RFU, TP53 / Fold change vs veh, TP53 / RFU, TNKS2 / Fold change vs veh, TNKS2 / RFU, ZFP14 / Fold change vs veh, ZFP14 / RFU, ACTR2 / Fold change vs veh, ACTR2 / RFU, PPP3R1 / Fold change vs veh, PPP3R1 / RFU, PIK3R1 / Fold change vs veh, PIK3R1 / RFU, HNRNPA1 / Fold change vs veh, HNRNPA1 / RFU, RNF170 / Fold change vs veh, RNF170 / RFU, ZNF28 / Fold change vs veh, ZNF28 / RFU, RNGTT / Fold change vs veh, RNGTT / RFU, OGT / Fold change vs veh, OGT / RFU, BRD1 / Fold change vs veh, BRD1 / RFU, MARS / Fold change vs veh, MARS / RFU, ZNF655 / Fold change vs veh, ZNF655 / RFU, FAHD1 / Fold change vs veh, FAHD1 / RFU, BDP1 / Fold change vs veh, BDP1 / RFU, LRRCC1 / Fold change vs veh, LRRCC1 / RFU, ARID1A / Fold change vs veh, ARID1A / RFU, ZNF146 / Fold change vs veh, ZNF146 / RFU, ZNF330 / Fold change vs veh, ZNF330 / RFU, GPN3 / Fold change vs veh, GPN3 / RFU, C9orf123 / Fold change vs veh, C9orf123 / RFU, N4BP2L2 / Fold change vs veh, N4BP2L2 / RFU, ARFIP1 / Fold change vs veh, ARFIP1 / RFU, FAM179B / Fold change vs veh, FAM179B / RFU, BCL10 / Fold change vs veh, BCL10 / RFU, UHRF1BP1L / Fold change vs veh, UHRF1BP1L / RFU, BET1 / Fold change vs veh, BET1 / RFU, CNOT2 / Fold change vs veh, CNOT2 / RFU, ZNF268 / Fold change vs veh, ZNF268 / Fold change vs veh, ZNF507 / RFU, DGCR2 / Fold change vs veh, DGCR2 / RFU, WDSUB1 / Fold change vs veh, WDSUB1 / Fold change vs veh, HSP90B1 /// MIR3652 / RFU, ADSS / Fold change vs veh, ADSS / RFU, GK / Fold change vs veh, GK / RFU, ZNF148 / Fold change vs veh, ZNF148 / RFU, TAF9 / Fold change vs veh, TAF9 / RFU, SLC1A5 / Fold change vs veh, SLC1A5 / RFU, SLMO2 / Fold change vs veh, SLMO2 / RFU, ABCC4 / Fold change vs veh, ABCC4 / RFU, LOC101060439 /// RAP1B / Fold change vs veh, LOC101060439 /// RAP1B / RFU, RFX7 / Fold change vs veh, RFX7 / RFU, GTPBP10 / Fold change vs veh, GTPBP10 / RFU, CNEP1R1 / Fold change vs veh, CNEP1R1 / RFU, BIVM-ERCC5 /// ERCC5 / Fold change vs veh, BIVM-ERCC5 /// ERCC5 / RFU, ILF3 / Fold change vs veh, ILF3 / RFU 11762660_at / Fold change /veh 11762660_at / RFU VCAN (11757783_s_at) / Fold change /veh VCAN (11757783_s_at) / RFU DDX43 (11728927_at) / Fold change /veh DDX43 (11728927_at) / RFU KRT8 (11758188_x_at) / Fold change /veh KRT8 (11758188_x_at) / RFU NKD1 (11759106_at) / Fold change /veh NKD1 (11759106_at) / RFU SRD5A1 (11742802_a_at) / Fold change /veh SRD5A1 (11742802_a_at) / RFU TPSAB1 /// TPSB2 (11721975_s_at) / Fold change /veh TPSAB1 /// TPSB2 (11721975_s_at) / RFU GSTM3 (11746129_a_at) / Fold change /veh GSTM3 (11746129_a_at) / RFU IL23R (11737362_x_at) / Fold change /veh IL23R (11737362_x_at) / RFU TMEM51 (11727254_a_at) / Fold change /veh TMEM51 (11727254_a_at) / RFU PIWIL2 (11732686_x_at) / Fold change /veh PIWIL2 (11732686_x_at) / RFU ORM1 (11744905_x_at) / Fold change /veh ORM1 (11744905_x_at) / RFU CCDC152 (11743942_at) / Fold change /veh CCDC152 (11743942_at) / RFU ECM1 (11717891_a_at) / Fold change /veh ECM1 (11717891_a_at) / RFU IL23R (11748794_a_at) / Fold change /veh IL23R (11748794_a_at) / RFU TNFAIP8L3 (11732012_x_at) / Fold change /veh TNFAIP8L3 (11732012_x_at) / RFU MBOAT4 (11741988_at) / Fold change /veh MBOAT4 (11741988_at) / RFU 11764193_at / Fold change /veh 11764193_at / RFU TMEM53 (11763286_at) / Fold change /veh TMEM53 (11763286_at) / RFU MAGEB2 (11727129_at) / Fold change /veh MAGEB2 (11727129_at) / RFU TMEM200A (11744735_a_at) / Fold change /veh TMEM200A (11744735_a_at) / RFU CCDC152 (11751479_a_at) / Fold change /veh CCDC152 (11751479_a_at) / RFU FAM211A (11726209_a_at) / Fold change /veh FAM211A (11726209_a_at) / RFU RGS16 (11746705_a_at) / Fold change /veh RGS16 (11746705_a_at) / RFU VCAN (11755009_s_at) / Fold change /veh VCAN (11755009_s_at) / RFU RHOB (11743442_s_at) / Fold change /veh RHOB (11743442_s_at) / RFU RGS16 (11720943_a_at) / Fold change /veh RGS16 (11720943_a_at) / RFU RGS16 (11720944_at) / Fold change /veh RGS16 (11720944_at) / RFU, VPS4B / Fold change vs veh, VPS4B / RFU, CREB1 / Fold change vs veh, CREB1 / RFU, DNAJC13 / Fold change vs veh, DNAJC13 / RFU, GNAQ / Fold change vs veh, GNAQ / RFU, CDK5R1 / Fold change vs veh, CDK5R1 / RFU, ZRANB3 / Fold change vs veh, ZRANB3 / RFU, CUL4A / Fold change vs veh, CUL4A / RFU, CCNY / Fold change vs veh, CCNY / RFU, UFL1 / Fold change vs veh, UFL1 / RFU, COG3 / Fold change vs veh, COG3 / RFU, DIAPH2 / Fold change vs veh, DIAPH2 / RFU, SKA2 / Fold change vs veh, SKA2 / RFU, AFF3 / Fold change vs veh, AFF3 / RFU, LMF1 / Fold change vs veh, LMF1 / RFU, IPO11 / Fold change vs veh, IPO11 / RFU, DFFB / Fold change vs veh, DFFB / RFU, FOXP1 / Fold change vs veh, FOXP1 / RFU, CARD8 / Fold change vs veh, CARD8 / RFU, STRN3 / Fold change vs veh, STRN3 / RFU, ADK / Fold change vs veh, ADK / RFU, RASSF2 / Fold change vs veh, RASSF2 / RFU, WIPF1 / Fold change vs veh, WIPF1 / RFU, LARP1B / Fold change vs veh, LARP1B / RFU, RASA1 / Fold change vs veh, RASA1 / RFU, RB1 / Fold change vs veh, RB1 / RFU, PPFIA1 / Fold change vs veh, PPFIA1 / RFU, MAT2A / Fold change vs veh, MAT2A / RFU, CCT5 / Fold change vs veh, CCT5 / RFU, WDR92 / Fold change vs veh, WDR92 / RFU, CUX1 / Fold change vs veh, CUX1 / RFU, TTC7A / Fold change vs veh, TTC7A / RFU, TMEM135 / Fold change vs veh, TMEM135 / RFU, DEPTOR / Fold change vs veh, DEPTOR / RFU, CPM / Fold change vs veh, CPM / RFU, DNAJB6 / Fold change vs veh, DNAJB6 / RFU, CACNA2D3 / Fold change vs veh, CACNA2D3 / RFU, DTX4 / Fold change vs veh, DTX4 / RFU, TFCP2 / Fold change vs veh, TFCP2 / RFU, GMCL1 /// GMCL1P1 / Fold change vs veh, GMCL1 /// GMCL1P1 / RFU, AEBP2 / Fold change vs veh, AEBP2 / RFU, SNHG1 /// SNORD22 /// SNORD25 /// SNORD26 /// SNORD27 /// SNORD28 /// SNORD29 /// SNORD31 / Fold change vs veh, SNHG1 /// SNORD22 /// SNORD25 /// SNORD26 /// SNORD27 /// SNORD28 /// SNORD29 /// SNORD31 / Fold change (Aza/veh), C12orf56 (ProbeSet 11735607_a_at) / Fold change (ACY-1035/veh), C12orf56 (ProbeSet 11735607_a_at) / Fold change (Aza/veh), FGFR1OP (ProbeSet 11751329_s_at) / Fold change (ACY-1035/veh), FGFR1OP (ProbeSet 11751329_s_at) / Fold change (Aza/veh), VPS36 (ProbeSet 11739960_a_at) / Fold change (ACY-1035/veh), VPS36 (ProbeSet 11739960_a_at) / RFU SYPL1 (11715823_x_at) / Fold change /veh SYPL1 (11715823_x_at) / RFU IGFBP7 (11715501_s_at) / Fold change /veh IGFBP7 (11715501_s_at) / RFU REEP3 (11722064_at) / Fold change /veh REEP3 (11722064_at) / RFU IGLL1 (11728026_x_at) / Fold change /veh IGLL1 (11728026_x_at): dose or concentration left out as unconfirmed
Conditions: ProbeSet 11717523_x_at; LIST B

Structure (SMILES): Nc1ccc(-c2cccs2)cc1NC(=O)c1ccc2c(c1)cc(C1CC1)n2CCN1CCOCC1 [ACY-1035]
- Fold change vs veh, TMEM50B: 0.88
